# Tests used:
# [1] = test system: Echinochloa oryzoides (Ard.) Fritsch.; assay: Preemergence weed control under flooded paddy conditions, ECHORC (Watergrass (Calif.)); type: in vivo; conditions: preemergence, flooded paddy, rated 3-4 weeks after treatment
# Cyperus iria = assay: Preemergence weed control under flooded paddy conditions, CYPIR (Rice Flatsedge); type: in vivo; conditions: preemergence, flooded paddy, rated 3-4 weeks after treatment
# [2] = test system: Cyperus serotinus, Rottb.; assay: Preemergence weed control under flooded paddy conditions, CYPSE (Flatsedge); type: in vivo; conditions: preemergence, rated 3-4 weeks after treatment
# [3] = test system: Monochoria vaginalis, Presl.; assay: Preemergence weed control under flooded paddy conditions, MOOVA (Monochoria); type: in vivo; conditions: preemergence, flooded paddy, rated 3-4 weeks after treatment
# Sagittaria pygmaea, L. = assay: Preemergence weed control under flooded paddy conditions, SAGPY (Arrowhead (Pygmaea)); type: in vivo; conditions: preemergence, flooded paddy, rated 3-4 weeks after treatment
# [4] = test system: Oryza sativa, (L.) Tebonnet; assay: Rice tolerance to post-transplant applications under flooded paddy conditions (Example 187), ORYSAT (Rice, Tebonnet); conditions: rated 3-4 weeks after treatment
# Also: meaning of each grade not given here.
SMILES,"herbicidal effect rating, ECHORC ([1]; Rate 0.0320 kg/ha)","herbicidal effect rating, ECHORC ([1]; Rate 0.0620 kg/ha)","herbicidal effect rating, ECHORC ([1]; Rate 0.1250 kg/ha)","herbicidal effect rating, ECHORC ([1]; Rate 0.2500 kg/ha)","herbicidal effect rating, ECHORC ([1]; Rate 0.5000 kg/ha)","herbicidal effect rating, CYPIR (Cyperus iria; Rate 0.0320 kg/ha)","herbicidal effect rating, CYPIR (Cyperus iria; Rate 0.0620 kg/ha)","herbicidal effect rating, CYPIR (Cyperus iria; Rate 0.1250 kg/ha)","herbicidal effect rating, CYPIR (Cyperus iria; Rate 0.2500 kg/ha)","herbicidal effect rating, CYPIR (Cyperus iria; Rate 0.5000 kg/ha)","herbicidal effect rating, CYPSE ([2]; Rate 0.0320 kg/ha)","herbicidal effect rating, CYPSE ([2]; Rate 0.0620 kg/ha)","herbicidal effect rating, CYPSE ([2]; Rate 0.1250 kg/ha)","herbicidal effect rating, CYPSE ([2]; Rate 0.2500 kg/ha)","herbicidal effect rating, CYPSE ([2]; Rate 0.5000 kg/ha)","herbicidal effect rating, MOOVA ([3]; Rate 0.0320 kg/ha)","herbicidal effect rating, MOOVA ([3]; Rate 0.0620 kg/ha)","herbicidal effect rating, MOOVA ([3]; Rate 0.1250 kg/ha)","herbicidal effect rating, MOOVA ([3]; Rate 0.2500 kg/ha)","herbicidal effect rating, MOOVA ([3]; Rate 0.5000 kg/ha)",also measured
"Cc1ccc(OCC(N)=O)c(-c2nsc3ccc(-n4c(=O)cc(C(F)(F)F)n(C)c4=O)cc23)c1 [Example 539, Acetamide, 2-{{2-{5-[3,6-dihydro-3-methyl-2,6-dioxo-4-(trifluoromethyl)-1(2H)-pyrimidinyl]-1,2-benzisothiazol-3-yl}-p-tolyl}oxy}-]",2.1,3.0,4.7,7.0,9.0,0.0,2.0,6.0,8.0,9.0,0.0,0.0,0.0,0.0,2.0,8.0,9.0,9.0,9.0,9.0,"herbicidal effect rating, SAGPY (Sagittaria pygmaea, L.; Rate 0.0320 kg/ha): 0.0; herbicidal effect rating, SAGPY (Sagittaria pygmaea, L.; Rate 0.0620 kg/ha): 0.0; herbicidal effect rating, SAGPY (Sagittaria pygmaea, L.; Rate 0.1250 kg/ha): 1.0; herbicidal effect rating, SAGPY (Sagittaria pygmaea, L.; Rate 0.2500 kg/ha): 4.0; herbicidal effect rating, SAGPY (Sagittaria pygmaea, L.; Rate 0.5000 kg/ha): 9.0; herbicidal effect rating ORYSAT ([4]; Rate 0.0320 kg/ha): 0.0; herbicidal effect rating ORYSAT ([4]; Rate 0.0620 kg/ha): 1.0; herbicidal effect rating ORYSAT ([4]; Rate 0.1250 kg/ha): 1.0; herbicidal effect rating ORYSAT ([4]; Rate 0.2500 kg/ha): 1.0; herbicidal effect rating ORYSAT ([4]; Rate 0.5000 kg/ha): 5.0"
"Cc1ccc(OCC(=O)C(C)(C)C)c(-c2nsc3ccc(-n4c(=O)cc(C(F)(F)F)n(C)c4=O)cc23)c1 [Example 540, 2,4(1H,3H)-Pyrimidinedione, 3-{3-[6-(3,3-dimethyl-2-oxobutoxy)-m-tolyl]-1,2-benzisothiazol-5-yl}-1-methyl-6-(trifluoromethyl)-]",2.3,3.4,4.7,9.0,9.0,6.0,8.0,9.0,9.0,9.0,0.0,0.0,0.0,0.0,3.0,8.0,9.0,9.0,9.0,9.0,"herbicidal effect rating, SAGPY (Sagittaria pygmaea, L.; Rate 0.0320 kg/ha): 0.0; herbicidal effect rating, SAGPY (Sagittaria pygmaea, L.; Rate 0.0620 kg/ha): 0.0; herbicidal effect rating, SAGPY (Sagittaria pygmaea, L.; Rate 0.1250 kg/ha): 0.0; herbicidal effect rating, SAGPY (Sagittaria pygmaea, L.; Rate 0.2500 kg/ha): 0.0; herbicidal effect rating, SAGPY (Sagittaria pygmaea, L.; Rate 0.5000 kg/ha): 0.0; herbicidal effect rating ORYSAT ([4]; Rate 0.0320 kg/ha): 0.0; herbicidal effect rating ORYSAT ([4]; Rate 0.0620 kg/ha): 0.0; herbicidal effect rating ORYSAT ([4]; Rate 0.1250 kg/ha): 0.0; herbicidal effect rating ORYSAT ([4]; Rate 0.2500 kg/ha): 1.0; herbicidal effect rating ORYSAT ([4]; Rate 0.5000 kg/ha): 3.0"
